Molecular target: ROCK2 (human) (UniProt O75116)
Experiment: Assessment of ROCK2 Kinase Activity by Luciferase Assay

Sequence of ROCK2 (human) (O75116 whole entry, looked up): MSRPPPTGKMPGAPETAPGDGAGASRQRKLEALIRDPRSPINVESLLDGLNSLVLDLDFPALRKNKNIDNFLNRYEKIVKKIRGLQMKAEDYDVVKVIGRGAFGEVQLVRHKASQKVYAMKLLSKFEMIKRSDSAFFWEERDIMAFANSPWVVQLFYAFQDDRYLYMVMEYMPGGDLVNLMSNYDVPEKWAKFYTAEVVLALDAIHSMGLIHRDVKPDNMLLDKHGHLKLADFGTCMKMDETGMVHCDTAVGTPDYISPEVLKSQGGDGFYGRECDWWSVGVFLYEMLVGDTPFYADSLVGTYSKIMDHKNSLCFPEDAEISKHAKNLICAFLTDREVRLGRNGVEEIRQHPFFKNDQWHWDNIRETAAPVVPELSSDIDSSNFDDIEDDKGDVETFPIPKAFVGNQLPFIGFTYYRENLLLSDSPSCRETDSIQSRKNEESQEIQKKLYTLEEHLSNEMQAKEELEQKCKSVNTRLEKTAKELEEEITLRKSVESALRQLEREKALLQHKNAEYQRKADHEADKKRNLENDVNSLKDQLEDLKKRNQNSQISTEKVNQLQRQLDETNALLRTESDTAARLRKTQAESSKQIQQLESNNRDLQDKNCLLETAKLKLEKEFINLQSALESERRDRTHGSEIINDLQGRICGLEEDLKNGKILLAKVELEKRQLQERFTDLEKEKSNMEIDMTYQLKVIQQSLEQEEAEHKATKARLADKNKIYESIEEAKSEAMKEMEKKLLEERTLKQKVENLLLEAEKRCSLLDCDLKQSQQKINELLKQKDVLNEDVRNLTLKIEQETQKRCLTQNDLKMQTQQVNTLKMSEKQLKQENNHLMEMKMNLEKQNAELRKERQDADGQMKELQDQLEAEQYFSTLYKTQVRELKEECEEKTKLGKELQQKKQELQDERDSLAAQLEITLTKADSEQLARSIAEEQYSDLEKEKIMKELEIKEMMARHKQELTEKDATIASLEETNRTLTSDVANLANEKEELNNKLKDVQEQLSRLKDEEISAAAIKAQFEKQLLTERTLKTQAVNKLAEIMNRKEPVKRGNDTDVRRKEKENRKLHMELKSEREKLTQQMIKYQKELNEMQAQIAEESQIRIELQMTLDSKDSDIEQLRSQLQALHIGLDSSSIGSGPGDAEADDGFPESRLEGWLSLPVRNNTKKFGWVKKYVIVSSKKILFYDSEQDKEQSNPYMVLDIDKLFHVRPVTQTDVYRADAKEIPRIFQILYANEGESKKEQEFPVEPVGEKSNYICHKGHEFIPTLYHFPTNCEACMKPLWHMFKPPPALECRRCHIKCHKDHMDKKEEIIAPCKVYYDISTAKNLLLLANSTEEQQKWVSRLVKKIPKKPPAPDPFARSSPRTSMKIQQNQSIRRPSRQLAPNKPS

Row | SMILES | IC50 | Kd
1 | COc1ccc(NC(=O)NCc2cccc(C(=O)NCCC3CCCNC3)c2)cc1OC (stereo unspecified) | 1.6 µM | –
2 | N#Cc1ccc(NC(=O)NCc2cccc(C(=O)NCCC3CCNCC3)c2)cc1 | 0.065 µM | –
3 | COc1ccc(C(=O)NCc2cccc(C(=O)Nc3ccc4c(c3)CNCC4)c2)cc1OC | – | 0.007 µM
4 | COc1ccc(C(=O)NCc2cccc(C(=O)Nc3ccc(CN(C)C)cc3)c2)cc1 | 1.3 µM | –
5 | CN(C)Cc1ccc(NC(=O)c2cccc(CNC(=O)Nc3ccc(C(N)=O)c(Cl)c3)c2)cc1 | 0.074 µM | –
6 | COc1ccc(NC(=O)Cc2cccc(NC(=O)CCC3CCCNC3)c2)cc1OC (stereo unspecified) | 0.037 µM | –
7 | CN(C)Cc1ccc(NC(=O)c2cccc(CNC(=O)Nc3cccc(C(N)=O)c3)c2)cc1 | 0.24 µM | –
8 | CN(C)Cc1ccc(NC(=O)c2cccc(CNC(=O)Nc3ccc(C(N)=O)cc3)c2)cc1 | 0.008 µM | –
9 | N#Cc1ccc(NC(=O)NCc2cccc(NC(=O)CCC3CCCNC3)c2)cc1 (stereo unspecified) | 0.11 µM | –
10 | COc1ccc(C(=O)NCc2cccc(C(=O)NCC3CCCO3)c2)cc1OC (stereo unspecified) | 1200 µM | –
11 | COc1ccc(CC(=O)Nc2cccc(C(=O)NCCC3CCCNC3)c2)cc1OC (stereo unspecified) | 3.2 µM | –
12 | COc1ccc(C(=O)NCc2cccc(C(=O)Nc3ccc(CN(C)C)cc3)c2)cc1C | 0.266 µM | –
13 | COc1ccc(C(=O)NCc2cccc(C(=O)NCCC3CCCNC3)c2)cc1OC (stereo unspecified) | – | 0.018 µM
14 | N#Cc1ccc(NC(=O)NCc2cccc(C(=O)Nc3ccc(CN)cc3)c2)cc1 | 0.07 µM | –
15 | CN(C)Cc1ccc(NC(=O)c2cccc(CNC(=O)Nc3ccc(C#N)c(Cl)c3)c2)cc1 | 0.01 µM | –
16 | COc1ccc(C(=O)NCc2cccc(C(=O)Nc3ccc4c(c3)CCNC4)c2)cc1OC | 0.1 µM | –
17 | CN(C)Cc1ccc(NC(=O)c2cccc(CNC(=O)c3ccc(C#N)cc3)c2)cc1 | 1.7 µM | –
18 | COc1ccc(C(=O)NCc2cccc(C(=O)Nc3ccc(CN(C)C)cc3)c2)cc1C(F)(F)F | 0.16 µM | –
19 | CN(C)Cc1ccc(NC(=O)c2cccc(CNC(=O)c3ccc(OC(F)(F)F)c(Cl)c3)c2)cc1 | 0.67 µM | –
20 | COc1ccc(C(=O)NCc2cccc(C(=O)Nc3ccc4cnccc4c3)c2)cc1OC | 0.685 µM | –
21 | COc1ccc(C(=O)NCc2cccc(C(=O)NCCC3CCCN(C)C3)c2)cc1OC (stereo unspecified) | 0.102 µM | –

— the Kinase Knowledgebase extract (Sharma et al. 2016)
